The values below come from patent US20240239792A1, “MODULATORS OF BCL-2 OR BCL-2/BCL-XL AND USES THEREOF” (APPICINE THERAPEUTICS (HK) LIMITED, priority 2021, published 2024).

pIC50: −log10 of the molar value.

The subject of test [1] is DOHH2 cells. Kind of test: CellTiter-Glo cell proliferation assay, DOHH2 cells. Type of test: cell-based. Particulars: Homo sapiens, DOHH-2, 72 hours. The procedure, abridged: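 GI50 derived from CellTiter-Glo luminescent viability signal. Cells grown in DMEM with 10% FBS received a compound dilution series for 72 h (37 °C, 5% CO2).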
Background: In ATP-based viability assays light output follows the ATP content of the culture.

In test [2] the target is T1, BCL-2 (Homo sapiens, UniProt P10415).
T1 construct: purchased Cisbio 63ADK000CB01PEG
Kind of test: HTRF BCL-2/BAK assay (Cisbio). Type of test: binding. The conditions noted are these: recombinant human Tag1-BCL-2 2 nM, Tag2-BAK 10 nM. How it is done:
(§1) Then the pre-mixed anti-Tag1-Eu^3+ and anti-tag2-XL665 were added to the plate and further incubated at room temperature for another 2 hours. The signals ([…]) were read on Envision 2104 instrument. The IC50 for each compound was derived from fitting the signal of 665/615 nM to the increasing compound concentration.
(§2) Using the above assays, the following compounds were tested.
A general note: TR-FRET usually uses a lanthanide donor and a delayed reading to cut background.

The target of test [3] is T2, BCL-XL (Homo sapiens, UniProt Q07817).
T2 construct: purchased Cisbio 63ADK000CB04PEG
Kind of test: HTRF BCL-XL/BAK assay (Cisbio). The conditions noted are these: recombinant human Tag1-BCL-XL 2 nM, Tag2-BAK 5 nM. Type of test: binding. How it is done:
as §1, §2

T1 sequence (P10415 whole entry): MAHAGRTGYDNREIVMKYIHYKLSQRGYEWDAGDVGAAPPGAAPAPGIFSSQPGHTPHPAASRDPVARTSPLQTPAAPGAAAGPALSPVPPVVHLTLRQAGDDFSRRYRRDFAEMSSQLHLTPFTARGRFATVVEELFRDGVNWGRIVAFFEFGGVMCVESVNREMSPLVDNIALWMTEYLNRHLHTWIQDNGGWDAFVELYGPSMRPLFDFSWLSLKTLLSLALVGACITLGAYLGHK
T2 sequence (Q07817 whole entry): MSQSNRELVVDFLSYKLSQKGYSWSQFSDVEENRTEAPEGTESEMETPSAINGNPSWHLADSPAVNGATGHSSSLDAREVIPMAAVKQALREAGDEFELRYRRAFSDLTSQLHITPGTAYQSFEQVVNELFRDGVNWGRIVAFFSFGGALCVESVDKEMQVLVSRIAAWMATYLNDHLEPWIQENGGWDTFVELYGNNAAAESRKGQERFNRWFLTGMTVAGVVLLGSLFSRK

A word on the GI50: it is the concentration that inhibits growth by half. The low end stands for more potent growth inhibition, the high end for less potent growth inhibition. As usually defined, the pIC50 is −log10 of the IC50, conventionally taken in molar units. In the case of `O=C(NS(=O)(=O)c1cccc([N+](=O)[O-])c1)c1ccc(N2CCN(C3CCCc4cccc(-c5ccc(Cl)cc5)c43)CC2)cc1Oc1cnc2[nH]ccc2c1` (stereo not drawn) [Compound 13, 2-((1H-pyrrolo[2,3-b]pyridin-5-yl)oxy)-4-(4-(8-(4-chlorophenyl)-1,2,3,4-tetrahydronaphthalen-1-yl)piperazin-1-yl)-N-((3-nitrophenyl)sulfonyl)benzamide], in test [1], the GI50 was in the range of 0.5 to 5 µM. The values for the pIC50 in test [2] and in test [3] were 6.70 to 7.70 and 5.70 to 6.70, respectively.

In the case of `O=C(NS(=O)(=O)c1ccc(NCC2CCOCC2)c([N+](=O)[O-])c1)c1ccc(N2CCN(C3CCCc4cccc(-c5ccc(Cl)cc5)c43)CC2)cc1Oc1cnc2[nH]ccc2c1` (stereo not drawn) [Compound 16, 2-((1H-pyrrolo[2,3-b]pyridin-5-yl)oxy)-4-(4-(8-(4-chlorophenyl)-1,2,3,4-tetrahydronaphthalen-1-yl)piperazin-1-yl)-N-((3-nitro-4-(((tetrahydro-2H-pyran-4-yl)methyl)amino)phenyl)sulfonyl)benzamide], the GI50 in test [1] was 0.5 to 5 µM. For the same molecule, the pIC50 in test [2] is more than 7.70; in test [3], 5.70 to 6.70.

The molecule `O=C(NS(=O)(=O)c1ccc(NCC2CCOCC2)c([N+](=O)[O-])c1)c1ccc(N2CCN(C3CCCCc4c(Br)cccc43)CC2)cc1Oc1cnc2[nH]ccc2c1` (stereo not drawn) [Compound 18, 2-((1H-pyrrolo[2,3-b]pyridin-5-yl)oxy)-4-(4-(1-bromo-6,7,8,9-tetrahydro-5H-benzo[7]annulen-5-yl)piperazin-1-yl)-N-((3-nitro-4-(((tetrahydro-2H-pyran-4-yl)methyl)amino)phenyl)sulfonyl)benzamide] showed a GI50 in test [1] of less than 0.05 µM. Also, the pIC50 in test [2] was more than 7.70; in test [3], 6.70 to 7.70.

`O=C(NS(=O)(=O)c1ccc(NCC2CCOCC2)c([N+](=O)[O-])c1)c1ccc(N2CCN(C3CCCCc4c(-c5ccccc5)cccc43)CC2)cc1Oc1cnc2[nH]ccc2c1` (stereo not drawn) [Compound 19, 2-((1H-pyrrolo[2,3-b]pyridin-5-yl)oxy)-N-((3-nitro-4-(((tetrahydro-2H-pyran-4-yl)methyl)amino)phenyl)sulfonyl)-4-(4-(1-phenyl-6,7,8,9-tetrahydro-5H-benzo[7]annulen-5-yl)piperazin-1-yl)benzamide] came in with a GI50 in test [1] of 0.5 to 5 µM. The pIC50 is more than 7.70 in test [2] and less than 5.70 in test [3].

For the molecule `Cc1cccc2c1CCCCC2N1CCN(c2ccc(C(=O)NS(=O)(=O)c3ccc(NCC4CCOCC4)c([N+](=O)[O-])c3)c(Oc3cnc4[nH]ccc4c3)c2)CC1` (stereo not drawn) [Compound 20, 2-((1H-pyrrolo[2,3-b]pyridin-5-yl)oxy)-4-(4-(1-methyl-6,7,8,9-tetrahydro-5H-benzo[7]annulen-5-yl)piperazin-1-yl)-N-((3-nitro-4-(((tetrahydro-2H-pyran-4-yl)methyl)amino)phenyl)sulfonyl)benzamide], the GI50 in test [1] fell in the range of 0.05 to 0.5 µM. Also, the pIC50 is more than 7.70 in test [2] and 5.70 to 6.70 in test [3].

As to `O=C(NS(=O)(=O)c1ccc(NCC2CCOCC2)c([N+](=O)[O-])c1)c1ccc(N2CCN(C3CCCCc4ccc(Br)cc43)CC2)cc1Oc1cnc2[nH]ccc2c1` (stereo not drawn) [Compound 21, 2-((1H-pyrrolo[2,3-b]pyridin-5-yl)oxy)-4-(4-(3-bromo-6,7,8,9-tetrahydro-5H-benzo[7]annulen-5-yl)piperazin-1-yl)-N-((3-nitro-4-(((tetrahydro-2H-pyran-4-yl)methyl)amino)phenyl)sulfonyl)benzamide], in test [1], the 50% growth inhibitory concentration (GI50) fell in the range of 0.05 to 0.5 µM. Also, the pIC50 was more than 7.70 in test [2] and less than 5.70 in test [3].

`O=C(NS(=O)(=O)c1ccc(NCC2CCOCC2)c([N+](=O)[O-])c1)c1ccc(N2CCN(C3CCCCc4cc(Br)ccc43)CC2)cc1Oc1cnc2[nH]ccc2c1` (stereo not drawn) [Compound 23, 2-((1H-pyrrolo[2,3-b]pyridin-5-yl)oxy)-4-(4-(2-bromo-6,7,8,9-tetrahydro-5H-benzo[7]annulen-5-yl)piperazin-1-yl)-N-((3-nitro-4-(((tetrahydro-2H-pyran-4-yl)methyl)amino)phenyl)sulfonyl)benzamide] returned a GI50 in test [1] of 0.5 to 5 µM. Further, the pIC50 in test [2] was 6.70 to 7.70; in test [3], 5.70 to 6.70.

`O=C(NS(=O)(=O)c1ccc(NCC2CCOCC2)c([N+](=O)[O-])c1)c1ccc(N2CCN(C3CCCCc4cc(Cl)ccc43)CC2)cc1Oc1cnc2[nH]ccc2c1` (stereo not drawn) [Compound 25, 2-((1H-pyrrolo[2,3-b]pyridin-5-yl)oxy)-4-(4-(2-chloro-6,7,8,9-tetrahydro-5H-benzo[7]annulen-5-yl)piperazin-1-yl)-N-((3-nitro-4-(((tetrahydro-2H-pyran-4-yl)methyl)amino)phenyl)sulfonyl)benzamide] had a GI50 in test [1] of 0.05 to 0.5 µM. Also, the pIC50 in test [2] is 6.70 to 7.70; in test [3] it was 5.70 to 6.70.

With `O=C(NS(=O)(=O)c1ccc(NCC2CCOCC2)c([N+](=O)[O-])c1)c1ccc(N2CCN(C3CCCCc4ccc(Cl)cc43)CC2)cc1Oc1cnc2[nH]ccc2c1` (stereo not drawn) [Compound 26, 2-((1H-pyrrolo[2,3-b]pyridin-5-yl)oxy)-4-(4-(3-chloro-6,7,8,9-tetrahydro-5H-benzo[7]annulen-5-yl)piperazin-1-yl)-N-((3-nitro-4-(((tetrahydro-2H-pyran-4-yl)methyl)amino)phenyl)sulfonyl)benzamide], the GI50 in test [1] lay in the range of 0.05 to 0.5 µM. The results for the pIC50 in test [2] and in test [3] were more than 7.70 and less than 5.70, respectively.

Turning to `O=C1CCC(N2CCN(c3ccc(C(=O)NS(=O)(=O)c4ccc(NCC5CCOCC5)c([N+](=O)[O-])c4)c(Oc4cnc5[nH]ccc5c4)c3)CC2)c2ccccc2N1` (stereo not drawn) [Compound 28, 2-((1H-pyrrolo[2,3-b]pyridin-5-yl)oxy)-N-((3-nitro-4-(((tetrahydro-2H-pyran-4-yl)methyl)amino)phenyl)sulfonyl)-4-(4-(2-oxo-2,3,4,5-tetrahydro-1H-benzo[b]azepin-5-yl)piperazin-1-yl)benzamide], the GI50 in test [1] was more than 5 µM. Besides, the pIC50 in test [2] was 6.70 to 7.70; in test [3], less than 5.70.

`CN1CCC(CNc2ccc(S(=O)(=O)NC(=O)c3ccc(N4CCN(C5CCCCc6c(Cl)cccc65)CC4)cc3Oc3cnc4[nH]ccc4c3)cc2[N+](=O)[O-])CC1` (stereo not drawn) [Compound 29, 2-((1H-pyrrolo[2,3-b]pyridin-5-yl)oxy)-4-(4-(1-chloro-6,7,8,9-tetrahydro-5H-benzo[7]annulen-5-yl)piperazin-1-yl)-N-((4-(((1-methylpiperidin-4-yl)methyl)amino)-3-nitrophenyl)sulfonyl)benzamide]: the GI50 in test [1] is less than 0.05 µM. The pIC50 in test [2] and in test [3] was more than 7.70 in each case.

For `O=C(NS(=O)(=O)c1ccc(NCC2CCOCC2)c([N+](=O)[O-])c1)c1ccc(N2CCN(C3CCCCc4ccc([N+](=O)[O-])cc43)CC2)cc1Oc1cnc2[nH]ccc2c1` (stereo not drawn) [Compound 30, 2-((1H-pyrrolo[2,3-b]pyridin-5-yl)oxy)-N-((3-nitro-4-(((tetrahydro-2H-pyran-4-yl)methyl)amino)phenyl)sulfonyl)-4-(4-(3-nitro-6,7,8,9-tetrahydro-5H-benzo[7]annulen-5-yl)piperazin-1-yl)benzamide], in test [1], the 50% growth inhibitory concentration (GI50) was 0.5 to 5 µM. In addition, the results for the pIC50 in test [2] and in test [3] were more than 7.70 and 5.70 to 6.70, respectively.

On to `CN1CCN(CCNc2ccc(S(=O)(=O)NC(=O)c3ccc(N4CCN(C5CCCCc6c(Cl)cccc65)CC4)cc3Oc3cnc4[nH]ccc4c3)cc2[N+](=O)[O-])CC1` (stereo not drawn) [Compound 32, 2-((1H-pyrrolo[2,3-b]pyridin-5-yl)oxy)-4-(4-(1-chloro-6,7,8,9-tetrahydro-5H-benzo[7]annulen-5-yl)piperazin-1-yl)-N-((4-((2-(4-methylpiperazin-1-yl)ethyl)amino)-3-nitrophenyl)sulfonyl)benzamide], for which the GI50 in test [1] was less than 0.05 µM. Further, the pIC50 in test [2] and in test [3] was more than 7.70 throughout.

In the case of `O=C(NS(=O)(=O)c1ccc(NCC2CCOCC2)c([N+](=O)[O-])c1)c1ccc(N2CCN(C3CCCCc4c3cccc4[N+](=O)[O-])CC2)cc1Oc1cnc2[nH]ccc2c1` (stereo not drawn) [Compound 33, 2-((1H-pyrrolo[2,3-b]pyridin-5-yl)oxy)-N-((3-nitro-4-(((tetrahydro-2H-pyran-4-yl)methyl)amino)phenyl)sulfonyl)-4-(4-(1-nitro-6,7,8,9-tetrahydro-5H-benzo[7]annulen-5-yl)piperazin-1-yl)benzamide], the GI50 in test [1] is less than 0.05 µM. Further, the pIC50 in test [2] is more than 7.70; in test [3], 6.70 to 7.70.

Consider `CC(=O)Nc1ccc2c(c1)C(N1CCN(c3ccc(C(=O)NS(=O)(=O)c4ccc(NCC5CCOCC5)c([N+](=O)[O-])c4)c(Oc4cnc5[nH]ccc5c4)c3)CC1)CCCC2` (stereo not drawn) [Compound 34, 2-((1H-pyrrolo[2,3-b]pyridin-5-yl)oxy)-4-(4-(3-acetamido-6,7,8,9-tetrahydro-5H-benzo[7]annulen-5-yl)piperazin-1-yl)-N-((3-nitro-4-(((tetrahydro-2H-pyran-4-yl)methyl)amino)phenyl)sulfonyl)benzamide], for which the GI50 in test [1] lay in the range of 0.5 to 5 µM. For the same molecule, the pIC50 is more than 7.70 in test [2] and 5.70 to 6.70 in test [3].

`Cc1ccc(S(=O)(=O)N2CCc3ccccc3C(N3CCN(c4ccc(C(=O)NS(=O)(=O)c5ccc(NCC6CCOCC6)c([N+](=O)[O-])c5)c(Oc5cnc6[nH]ccc6c5)c4)CC3)C2)cc1` (stereo not drawn) [Compound 35, 2-((1H-pyrrolo[2,3-b]pyridin-5-yl)oxy)-N-((3-nitro-4-(((tetrahydro-2H-pyran-4-yl)methyl)amino)phenyl)sulfonyl)-4-(4-(3-tosyl-2,3,4,5-tetrahydro-1H-benzo[d]azepin-1-yl)piperazin-1-yl)benzamide]: the GI50 in test [1] lay in the range of 0.5 to 5 µM. Also, the pIC50 in test [2] was 6.70 to 7.70; in test [3] it was 5.70 to 6.70.
